Test results from patent publication US20160158267A1, “METHODS OF PREVENTING, REDUCING OR TREATING MACULAR DEGENERATION” (Inotek Pharmaceuticals Corporation, priority 2014, published 2016).
Values joined by “and” are separate entries in the source; they are usually repeats but may differ in a detail not shown here. Identical values can stand only once. Like-named read-outs stand apart in the source and are kept apart here.

How the values were obtained:
BALB/c mice [1] = assay type: in vivo
Source text: (§1) The rodent retina is widely used to investigate retinal diseases, as well as the response of central nervous system neurons to injury. Light-induced retinal damage (phototoxicity) selectively brings about photoreceptor cell death. Thus, this model is useful for studying the potential mechanisms underlying photoreceptor death and the subsequent retinal degeneration processes since it mimics the photoreceptor degeneration that forms the main characteristic of age-related macular degeneration.
(§2) Aliquots were removed from the refrigerator and allowed to warm to room temperature for at least 30 minutes before dosing. The positive control, BDNF, was reconstituted with 0.9% Sodium Chloride for Injection, USP at a concentration of 1 μg/μL. Any residual volumes were discarded.
(§3) Thirty-four (34) male BALB/c mice were received from Charles River, St Constant.
The dose volume for each eye/dose was 10 μL. The formulations were stirred continuously during dose administration and were retained on wet ice between doses.
(§4) The positive control, BDNF, was administered to Group 4 animals by single bilateral intravitreal (IVT) injection on Day 1. The dose volume was 1 μL/eye. Animals were anesthetized for the dosing procedure using an isoflurane/oxygen mix and/or a sedative cocktail (ketamine 100 mg/kg; xylazine 10 mg/kg; half or quarter dose if needed given by intraperitoneal injection). Injections were made using a glass microneedle connected to a Hamilton syringe via a sclera pilot hole created with a 30 G needle. A bland lubricating ointment was applied to the eyes following dosing.
On Day 2, animals were transferred to the blue light bins (housed individually). Light fixtures with bulbs emitting blue light (460 to 490 nm; Philips F40/BB Special Blue F40T12/BB) were attached to separate housing racks directly above the cages, such that all animals received similar light exposure. […] Hiding devices/tubes and bedding were not available in the bins.
The anesthetic used was ketamine (100 mg/kg) and xylazine (10 mg/kg).
All animals were euthanized on Day 8 and underwent exsanguination from the abdominal aorta after carbon dioxide asphyxiation.
One eye from each animal was embedded in paraffin, sectioned, mounted on glass slides, and stained with hematoxylin and eosin.
The outer nuclear layer (ONL) thickness (number of cell layers) were counted at 4 locations in the retina and a microscopic evaluation of the retina, including pigmented retinal epithelial cells, was conducted.

[2] = target: T1, human adenosine A3 receptor (Homo sapiens, UniProt P0DMS8); assay: Inhibition of forskolin-stimulated adenylyl cyclase via A3 receptor, CHO cell membranes; assay type: biochemical; details: membranes of CHO cells stably transfected with human A3
T1 sequence (P0DMS8 1-318): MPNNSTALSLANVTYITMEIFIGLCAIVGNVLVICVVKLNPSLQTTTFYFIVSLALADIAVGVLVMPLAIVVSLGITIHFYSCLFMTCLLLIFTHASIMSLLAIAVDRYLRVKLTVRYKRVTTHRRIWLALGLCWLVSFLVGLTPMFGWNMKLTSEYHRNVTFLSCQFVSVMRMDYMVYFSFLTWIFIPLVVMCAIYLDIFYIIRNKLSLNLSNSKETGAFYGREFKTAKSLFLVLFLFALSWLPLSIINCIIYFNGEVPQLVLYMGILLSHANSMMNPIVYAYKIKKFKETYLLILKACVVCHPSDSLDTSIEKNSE
Method: The A1 and A3 receptor-mediated inhibition of forskolin-stimulated adenylyl cyclase activity was tested in membranes prepared from CHO cells stably transfected with the human A1 and A3 adenosine receptors.

BALB/c mice [3] = assay type: in vivo; details: for Group mean of the number of cell layers in retinal outer nuclear layer: placebo 7.22
Source text: as §1, §2, §3
The test item and placebo were administered by twice-daily topical ocular instillation from Days 1 to 7, separated by at least 8 hours. The dose volume for each eye/dose was 10 μL. The formulations were stirred continuously during dose administration and were retained on wet ice between doses.
as §4
On Day 2, animals were transferred to the blue light bins (housed individually). Light fixtures with bulbs emitting blue light (460 to 490 nm; Philips F40/BB Special Blue F40T12/BB) were attached to separate housing racks directly above the cages, such that all animals received similar light exposure. The light intensity in the bins was measured using a light meter; the average intensity was 550 lux. Hiding devices/tubes and bedding were not available in the bins.
Mortality/moribundity checks were performed twice daily, once in the morning and once in the afternoon, throughout the study. Detailed examinations were performed weekly. Individual body weights were measured twice pre-treatment and at necropsy.
Electroretinography (ERG) was performed once pre-treatment and once at the end of Week 1 following overnight dark adaptation. The anesthetic used was ketamine (100 mg/kg) and xylazine (10 mg/kg).
All animals were euthanized on Day 8 and underwent exsanguination from the abdominal aorta after carbon dioxide asphyxiation. No necropsy examinations were performed.
One eye from each animal was embedded in paraffin, sectioned, mounted on glass slides, and stained with hematoxylin and eosin. The other eye was retained.
Histopathological evaluation was performed by a board-certified veterinary pathologist or veterinary pathologist with training and experience in laboratory animal pathology. The outer nuclear layer (ONL) thickness (number of cell layers) were counted at 4 locations in the retina and a microscopic evaluation of the retina, including pigmented retinal epithelial cells, was conducted. Representative images were captured for consultation and illustrative purposes.

A2A adenosine receptor = A2A adenosine receptor (Homo sapiens, UniProt P29274); assay: Adenosine receptor binding, A1 > A2A selectivity; details: ratio of Ki values
Chain of A2A adenosine receptor (P29274 whole entry): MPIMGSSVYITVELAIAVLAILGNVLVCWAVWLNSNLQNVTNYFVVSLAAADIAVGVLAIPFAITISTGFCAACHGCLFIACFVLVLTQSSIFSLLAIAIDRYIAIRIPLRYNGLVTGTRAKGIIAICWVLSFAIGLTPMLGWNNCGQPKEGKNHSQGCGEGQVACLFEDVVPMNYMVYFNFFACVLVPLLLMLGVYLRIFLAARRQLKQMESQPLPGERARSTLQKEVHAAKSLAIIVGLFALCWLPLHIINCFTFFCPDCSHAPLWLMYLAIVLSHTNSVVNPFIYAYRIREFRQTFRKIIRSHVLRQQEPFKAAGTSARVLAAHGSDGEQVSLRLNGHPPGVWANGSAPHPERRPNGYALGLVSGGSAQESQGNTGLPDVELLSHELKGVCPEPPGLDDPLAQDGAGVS
Method: The cell suspension is then homogenized in ice-cold hypotonic buffer (5 mM Tris/HCl mM EDTA, pH 7.4) and the homogenate is spun for 10 minutes (4° C.) at 1,000 g.

O=[N+]([O-])OC[C@H]1O[C@@H](n2cnc3c(NC4CCCC4)ncnc32)[C@H](O)[C@@H]1O [Compound A, ((2R,3S,4R,5R)-5-(6-(cyclopentylamino)-9H-purin-9-yl)-3,4-dihydroxytetrahydrofuran-2-yl)methyl nitrate]
Average number of cell layers in the ONL, placebo compared to treated group (BALB/c mice [1]; 600 or 900 μg/eye/day topical): reduced in the placebo group | B-wave amplitude following 0 dB scotopic flash stimuli (BALB/c mice [1]; 600 or 900 μg/eye/day, versus placebo control, comparable to BDNF positive control): higher | Number of nuclear bodies in the ONL based on average ONL thickness counts (BALB/c mice [1]; low dose group (600 μg/eye/day), compared with all groups): retained the greatest number of nuclear bodies in the ONL | Overall ERG function and ONL cellularity after blue light exposure (BALB/c mice [1]; two or three-times daily at 600 or 900 μg/eye/day topical, 1100 lux for 6 hours on Day 2): preservation of ERG function and cellularity in the ONL layer of the retina | EC50 [2]: > 100000 nM | Incidence of minimal to moderate decrease in cellularity of the retina (BALB/c mice [3]; 300 μg/eye/day topical, placebo 6/8): 7/8 | Group mean of the number of cell layers in retinal outer nuclear layer (BALB/c mice [3]; 300 μg/eye/day topical): 7.28 layers | Incidence of minimally decreased retinal cellularity (BALB/c mice [3]; 600 μg/eye/day topical, other animals not affected at all): 2/8 | Group mean of the number of cell layers in retinal outer nuclear layer (BALB/c mice [3]; 600 μg/eye/day topical): 8.56 layers | Overall effect on incidence and severity of decreased retinal cellularity (BALB/c mice [3]; 600 μg/eye/day, 7 days twice daily topical ocular instillation): protective effect | Retinal outer nuclear layer thickness (Mean number of nuclei), individual animals (BALB/c mice [3]; Group 2, low dose 300 μg/eye/day, animals 2001-2008, mean of 4 measurements per retina): 10.00 and 9.25 and 6.50 and 5.25 and 7.25 and 6.25 and 5.50 and 8.25 | Retinal outer nuclear layer thickness (Mean number of nuclei), individual animals (BALB/c mice [3]; Group 3, high dose 600 μg/eye/day, animals 3001-3008, mean of 4 measurements per retina): 9.25 and 9.00 and 9.75 and 7.75 (2×) and 9.50 and 8.75 and 6.75 | Abnormalities in general appearance or condition of the animals (BALB/c mice [3]; male BALB/c mice, dosing period, 300 or 600 μg/eye/day topical twice daily Days 1 to 7): No abnormalities were observed | ERG parameters (scotopic single flash 0 dB, A-wave and B-wave) (BALB/c mice [3]; one week after blue light exposure, 300 or 600 μg/eye/day, versus other groups including placebo): comparable across treatment groups

O=[N+]([O-])OC[C@H]1O[C@@H](n2cnc3c(NC4CCOC4)ncnc32)[C@H](O)[C@@H]1O (stereo partly drawn) [Compound D, ((2R,3S,4R,5R)-3,4-dihydroxy-5-(6-(tetrahydrofuran-3-ylamino)-9H-purin-9-yl)tetrahydrofuran-2-yl)methyl nitrate]
A1 > A2A SELECTIVITY [KiA2(nm)/KiA1(nm)] (A2A adenosine receptor): >9434

B1: BDNF: Brain Derived Neurotrophic Factor, positive control given by single bilateral intravitreal injection (protein, UniProt P23560 19-247, looked up)
Neurotrophic factor BDNF …: APMKEANIRGQGGLAYPGVRTHGTLESVNGPKAGSRGLTSLADTFEHVIEELLDEDQKVRPNEENNKDADLYTSRVMLSSQVPLEPPLLFLLEEYKNYLDAANMSMRVRRHSDPARRGELSVCDSISEWVTAADKKTAVDMSGGTVTVLEKVPVSKGQLKQYFYETKCNPMGYTKEGCRGIDKRHWNSQCRTTQSYVRALTMDSKKRIGWRFIRIDTSCVCTLTIKRGR
Average number of cell layers in the ONL, placebo compared to treated group (BALB/c mice [1]; BDNF control, 1 μg/eye IVT): reduced in the placebo group | Group mean of the number of cell layers in retinal outer nuclear layer (BALB/c mice [3]; 1 μg/eye single IVT injection Day 1): 8.75 layers | Retinal outer nuclear layer thickness (Mean number of nuclei), individual animals (BALB/c mice [3]; Group 4, 1 μg/eye/day IVT, animals 4001-4008, mean of 4 measurements per retina): 7.75 (2×) and 9.25 and 8.50 (2×) and 8.75 and 10.50 and 9.00
